This is an account of results in patent US7115749B2, “Substituted 5-oxo pyrazoles and [1,2,4]triazoles as antiviral agents” (priority 2004, dated 2006).

In general, IC50 refers to the concentration needed to halve the response being measured. Read a high IC50 as lower potency.

HCV RNA-dependent RNA polymerase NS5B (Δ21), sequence (P26663 2420-2989, stated change not applied): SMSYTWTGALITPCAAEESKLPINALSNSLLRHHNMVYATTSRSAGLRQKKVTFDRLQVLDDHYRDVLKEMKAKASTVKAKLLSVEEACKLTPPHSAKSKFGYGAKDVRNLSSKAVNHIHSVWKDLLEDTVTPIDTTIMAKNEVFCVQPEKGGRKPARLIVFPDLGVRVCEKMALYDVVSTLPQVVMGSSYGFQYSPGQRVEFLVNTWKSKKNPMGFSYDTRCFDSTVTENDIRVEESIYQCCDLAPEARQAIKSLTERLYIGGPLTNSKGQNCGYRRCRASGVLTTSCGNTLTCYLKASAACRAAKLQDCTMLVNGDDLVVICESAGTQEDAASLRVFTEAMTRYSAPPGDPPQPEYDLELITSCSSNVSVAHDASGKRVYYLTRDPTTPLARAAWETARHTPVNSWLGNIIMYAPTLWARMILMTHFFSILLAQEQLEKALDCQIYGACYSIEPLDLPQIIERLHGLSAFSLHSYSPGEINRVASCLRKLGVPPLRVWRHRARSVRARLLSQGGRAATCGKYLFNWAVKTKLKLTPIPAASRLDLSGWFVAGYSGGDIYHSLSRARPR

For this experiment, the target named is HCV RNA-dependent RNA polymerase NS5B (Δ21) (Hepatitis C virus genotype 1b, UniProt P26663). Description: Assay for HCV RNA-dependent RNA polymerase activity (SPA, [3H]-GTP incorporation). The experiment is classed as biochemical. As for the experimental part:
Assay for HCV RNA-dependent RNA Polymerase Activity
Inhibitory activity of the present compounds against HCV RNA-dependent RNA polymerase was assayed according to the methods disclosed in U.S. Patent Application U.S.2004/038993, content of which is incorporated herein by reference; and those described in Ferrari, E.; Wright-Minogue, J.; Fang, J. W. S.; Baroudy, B. M.; Lau, J. Y. N.; Hong, Z. J. Virol. 1999, 73, 1649.
Briefly, 50 μl reactions containing 20 mM HEPES (pH 7.3), 7.5 mM DTT, 20 units/ml RNasIN, 0.5 ug/ml biotinylated oligoG12, 5 μg/ml polyC, 5 μM GTP, 20 μCi/ml [^3H]-GTP, 10 mM MgCl2, 60 mM NaCl, 100 μg/ml BSA, and 50 nM NS5B (Δ21) were incubated at room temperature for three hours in 96-well plates with or without test compounds. Assay was terminated by the addition of 50 μl 10 mg/ml streptavidin-coated SPA beads supplemented with 100 mM EDTA, and the incorporation of labeled GTP determined by a TopCount Scintillation Counter. IC50 values were calculated from single experiments using 11 serial 2-fold dilutions (0.05–50 μM), and data were considered reliable only when the IC50 value of a positive internal control was within standard deviation range.
`O=C(Cn1nc(C(=O)O)cc1OCc1ccccc1)N[C@H]1CCCC[C@@H]1OCc1ccccc1` [Compound 1]: the IC50 worked out at 43 µM.

As for `CCOc1ccccc1COc1cc(C(=O)O)nn1CC(=O)N[C@H]1CCCC[C@@H]1OCc1ccccc1` [Compound 2], the half-maximal inhibitory concentration (IC50) amounted to 1 µM.

`O=C(Cn1nc(C(=O)O)cc1OCc1ccccc1-c1ccccc1)N[C@H]1CCCC[C@@H]1OCc1ccccc1` [Compound 3] returned an IC50 of 1 µM.

`O=C(Cn1nc(C(=O)O)cc1OCc1ccccc1CS(=O)(=O)c1ccccc1)N[C@H]1CCCC[C@@H]1OCc1ccccc1` [Compound 4] gave an IC50 of 32 µM.

`O=C(Cn1nc(C(=O)O)cc1OCc1ccccc1)Nc1ccccc1OCc1ccccc1` [Compound 5] registered an IC50 of 11 µM.

Regarding `CCOc1ccccc1COc1cc(C(=O)O)nn1CC(=O)Nc1ccccc1OCc1ccccc1` [Compound 6], the IC50 amounted to 40 µM.

`O=C(Cn1nc(C(=O)O)cc1OCc1ccccc1-c1ccccc1)Nc1ccccc1OCc1ccccc1` [Compound 7] yielded an IC50 of 11 µM.

As for `O=C(Cn1nc(C(=O)O)cc1OCc1ccccc1CS(=O)(=O)c1ccccc1)Nc1ccccc1OCc1ccccc1` [Compound 8], the IC50 came to 0.8 µM.

For `O=C(Cn1nc(C(=O)O)cc1OCc1ccccc1-c1ccc(Cl)cc1)N[C@H]1CCCC[C@@H]1OCc1ccccc1` [Compound 10], the midpoint of inhibition, the IC50, lay at 0.064 µM.

On to `O=C(Cn1nc(C(=O)O)cc1OCc1cc(F)cc(C(F)(F)F)c1)N[C@H]1CCCC[C@@H]1OCc1ccccc1` [Compound 11, 1-[((1S, 2S)-2-Benzyloxy-cyclohexylcarbamoyl)-methyl]-5-(3-fluoro-5-trifluoromethyl-benzyloxy)-1H-pyrazole-3-carboxylic acid], for which the IC50 was 1.8 µM.

The molecule `O=C(Cn1nc(C(=O)O)cc1OCc1cc(Cl)ccc1Cl)N[C@H]1CCCC[C@@H]1OCc1ccccc1` [Compound 12] had an IC50 of 3.9 µM.

Regarding `O=C(Cn1nc(C(=O)O)cc1OCc1ccccc1Cl)N[C@H]1CCCC[C@@H]1OCc1ccccc1` [Compound 13], the IC50 is more than 12.5 µM.

`O=C(Cn1nc(C(=O)O)cc1OCc1ccccc1F)N[C@H]1CCCC[C@@H]1OCc1ccccc1` [Compound 14] registered an IC50 of more than 12.5 µM.

`O=C(Cn1nc(C(=O)O)cc1OCc1ccc(Cl)cc1)N[C@H]1CCCC[C@@H]1OCc1ccccc1` [Compound 15] displayed an IC50 of 2.4 µM.

As to `Cc1cccc(COc2cc(C(=O)O)nn2CC(=O)N[C@H]2CCCC[C@@H]2OCc2ccccc2)c1F` [Compound 16], the IC50 was determined as 8.4 µM.

`O=C(Cn1nc(C(=O)O)cc1OCc1ccc(F)cc1Cl)N[C@H]1CCCC[C@@H]1OCc1ccccc1` [Compound 17] returned an IC50 of 9.5 µM.

As to `O=C(Cn1nc(C(=O)O)cc1OCc1cccc(C(F)(F)F)c1)N[C@H]1CCCC[C@@H]1OCc1ccccc1` [Compound 18], the IC50 came to 2.1 µM.

`O=C(Cn1nc(C(=O)O)cc1OCc1ccc(C(F)(F)F)cc1)N[C@H]1CCCC[C@@H]1OCc1ccccc1` [Compound 19] had an IC50 of 0.62 µM.

In turn, `O=C(Cn1nc(C(=O)O)cc1OCc1ccccc1C(F)(F)F)N[C@H]1CCCC[C@@H]1OCc1ccccc1` [Compound 20] returned a concentration for half-maximal inhibition (IC50) of 2.9 µM.

As to `O=C(Cn1nc(C(=O)O)cc1OCc1ccc(F)cc1)N[C@H]1CCCC[C@@H]1OCc1ccccc1` [Compound 21], the IC50 stood at 13 µM.

Consider `Cc1ccc(COc2cc(C(=O)O)nn2CC(=O)N[C@H]2CCCC[C@@H]2OCc2ccccc2)cc1F` [Compound 22], for which the IC50 is 3 µM.

`O=C(Cn1nc(C(=O)O)cc1OCc1cc(F)cc(F)c1)N[C@H]1CCCC[C@@H]1OCc1ccccc1` [Compound 23] had a 50% inhibitory concentration (IC50) of 12 µM.

Consider `O=C(Cn1nc(C(=O)O)cc1OCc1cccc(F)c1F)N[C@H]1CCCC[C@@H]1OCc1ccccc1` [Compound 24], for which the IC50 was more than 12.5 µM.

Molecule `O=C(Cn1nc(C(=O)O)cc1OCc1ccc(F)c(F)c1)N[C@H]1CCCC[C@@H]1OCc1ccccc1` [Compound 25] had an IC50 of 4.3 µM.

`O=C(Cn1nc(C(=O)O)cc1OCc1c(F)cccc1F)N[C@H]1CCCC[C@@H]1OCc1ccccc1` [Compound 26] yielded an IC50 of more than 50 µM.

`O=C(Cn1nc(C(=O)O)cc1OCc1cccc(Cl)c1)N[C@H]1CCCC[C@@H]1OCc1ccccc1` [Compound 27] yielded an IC50 of 8.6 µM.

On to `O=C(Cn1nc(C(=O)O)cc1OCc1cccc(F)c1)N[C@H]1CCCC[C@@H]1OCc1ccccc1` [Compound 28], for which the IC50 was more than 12.5 µM.

Consider `O=C(Cn1nc(C(=O)O)cc1OCc1ccc(F)cc1F)N[C@H]1CCCC[C@@H]1OCc1ccccc1` [Compound 29], for which the IC50 is more than 12.5 µM.

For the molecule `O=C(Cn1nc(C(=O)O)cc1OCc1cccc(C(F)(F)F)c1F)N[C@H]1CCCC[C@@H]1OCc1ccccc1` [Compound 30], it took 2 µM to reach half-maximal inhibition (IC50).

Turning to `O=C(Cn1nc(C(=O)O)cc1OCc1ccc(F)c(C(F)(F)F)c1)N[C@H]1CCCC[C@@H]1OCc1ccccc1` [Compound 31], half-maximal inhibition (IC50) was put at 1.4 µM.

`O=C(Cn1nc(C(=O)O)cc1OCc1ccc(C(F)(F)F)c(F)c1)N[C@H]1CCCC[C@@H]1OCc1ccccc1` [Compound 32]: the IC50 stood at 0.28 µM.

With `O=C(Cn1nc(C(=O)O)cc1OCc1cc(F)ccc1C(F)(F)F)N[C@H]1CCCC[C@@H]1OCc1ccccc1` [Compound 33], the IC50 was 2.9 µM.

Take `O=C(Cn1nc(C(=O)O)cc1OCc1cc(C(F)(F)F)ccc1F)N[C@H]1CCCC[C@@H]1OCc1ccccc1` [Compound 34]: it took 6.1 µM to reach half-maximal inhibition (IC50).

In turn, `O=C(Cn1nc(C(=O)O)cc1OCc1cccc(Cl)c1F)N[C@H]1CCCC[C@@H]1OCc1ccccc1` [Compound 35] returned an IC50 of 9.2 µM.

`O=C(Cn1nc(C(=O)O)cc1OCc1ccc(Cl)c(Cl)c1)N[C@H]1CCCC[C@@H]1OCc1ccccc1` [Compound 36] displayed an IC50 of 0.86 µM.

Molecule `O=C(Cn1nc(C(=O)O)cc1OCc1ccc(C(F)(F)F)cc1F)N[C@H]1CCCC[C@@H]1OCc1ccccc1` [Compound 37] gave an IC50 of 6.2 µM.

For the molecule `O=C(Cn1nc(C(=O)O)cc1OCc1ccc(F)cc1C(F)(F)F)N[C@H]1CCCC[C@@H]1OCc1ccccc1` [Compound 38], the IC50 worked out at 2.6 µM.

Take `O=C(Cn1nc(C(=O)O)cc1OCc1cccc(Oc2ccccc2F)c1)N[C@H]1CCCC[C@@H]1OCc1ccccc1` [Compound 39]: the IC50 came to 2.2 µM.

The molecule `O=C(Cn1nc(C(=O)O)cc1OCc1cc(F)ccc1C(F)(F)F)N[C@H]1CCCC[C@@H]1OCc1ccccc1` [Compound 40] had an IC50 of 3.1 µM.

Consider `O=C(Cn1nc(C(=O)O)cc1OCc1cc(Cl)ccc1F)N[C@H]1CCCC[C@@H]1OCc1ccccc1` [Compound 41], for which the IC50 is 7.8 µM.

As to `O=C(Cn1nc(C(=O)O)cc1OCc1ccc(F)c(Cl)c1)N[C@H]1CCCC[C@@H]1OCc1ccccc1` [Compound 42], the IC50 is 13 µM.

Molecule `Cc1cc(COc2cc(C(=O)O)nn2CC(=O)N[C@H]2CCCC[C@@H]2OCc2ccccc2)ccc1F` [Compound 43] came in with an IC50 of 3.1 µM.

With `O=C(Cn1nc(C(=O)O)cc1OCc1cccc(F)c1C(F)(F)F)N[C@H]1CCCC[C@@H]1OCc1ccccc1` [Compound 44], half-maximal inhibition (IC50) required 4.5 µM.

Regarding `O=C(Cn1nc(C(=O)O)cc1OCc1ccc2ccccc2c1)N[C@H]1CCCC[C@@H]1OCc1ccccc1` [Compound 45], the IC50 is 6.8 µM.

Molecule `O=C(Cn1nc(C(=O)O)cc1OCc1cc(F)ccc1F)N[C@H]1CCCC[C@@H]1OCc1ccccc1` [Compound 46] had an IC50 of more than 12.5 µM.

With `COc1cccc(COc2cc(C(=O)O)nn2CC(=O)N[C@H]2CCCC[C@@H]2OCc2ccccc2)c1` [Compound 47], the IC50 was more than 50 µM.

Take `O=C(Cn1nc(C(=O)O)cc1OCc1cccc(C(=O)O)c1)N[C@H]1CCCC[C@@H]1OCc1ccccc1` [Compound 48]: the IC50 was more than 50 µM.

`COc1cccc(-c2ccccc2COc2cc(C(=O)O)nn2CC(=O)N[C@H]2CCCC[C@@H]2OCc2ccccc2)c1` [Compound 49] showed an IC50 of 3.6 µM.

`COc1ccc(-c2ccccc2COc2cc(C(=O)O)nn2CC(=O)N[C@H]2CCCC[C@@H]2OCc2ccccc2)cc1` [Compound 50, 1-[(2-benzyloxy-cyclohexylcarbamoyl)-methyl]-5-(4′-methoxy-biphenyl-2-ylmethoxy)-1H-pyrazole-3-carboxylic acid]: the IC50 was 0.38 µM.

In the case of `CS(=O)(=O)c1cccc(-c2ccccc2COc2cc(C(=O)O)nn2CC(=O)N[C@H]2CCCC[C@@H]2OCc2ccccc2)c1` [Compound 51], the IC50 was 22 µM.

`CS(=O)(=O)c1ccc(-c2ccccc2COc2cc(C(=O)O)nn2CC(=O)N[C@H]2CCCC[C@@H]2OCc2ccccc2)cc1` [Compound 52] gave an IC50 of 9.2 µM.

On to `O=C(Cn1nc(C(=O)O)cc1OCc1ccccc1-c1cccc(Cl)c1)N[C@H]1CCCC[C@@H]1OCc1ccccc1` [Compound 53], for which the IC50 was found to be 0.78 µM.

`O=C(Cn1nc(C(=O)O)cc1OCc1ccccc1-c1ccccc1Cl)N[C@H]1CCCC[C@@H]1OCc1ccccc1` [Compound 54] registered an IC50 of 2.6 µM.

As to `O=C(Cn1nc(C(=O)O)cc1OCc1ccccc1-c1cccc(C(=O)O)c1)N[C@H]1CCCC[C@@H]1OCc1ccccc1` [Compound 55], the IC50 is more than 12.5 µM.

Molecule `O=C(Cn1nc(C(=O)O)cc1OCc1ccccc1-c1ccc(C(=O)O)cc1)N[C@H]1CCCC[C@@H]1OCc1ccccc1` [Compound 56] came in with an IC50 of more than 12.5 µM.

The molecule `O=C(Cn1nc(C(=O)O)cc1OCc1ccccc1-c1cccs1)N[C@H]1CCCC[C@@H]1OCc1ccccc1` [Compound 57] gave an IC50 of 2.1 µM.
